Source: ChEMBL document CHEMBL5113515, “The Discovery of GSK3640254, a Next-Generation Inhibitor of HIV-1 Maturation” (J Med Chem, 2022)
One block for each compound: values may come before it.

Assays:
[1] = tested on: Human immunodeficiency virus 1; assay: Antiviral activity against HIV1 wild type NL (4 to 3) infected in human MT2 cells measured after 4 to 5 days by dual-luciferase reporter assay; type: functional, organism-based; conditions: Human immunodeficiency virus 1, MT2
[2] = tested on: Human immunodeficiency virus 1; assay: Antiviral activity against HIV1 harbouring T332S/V362I/prR41G mutant infected in human MT2 cells measured after 4 to 5 days by dual-luciferase reporter assay; type: functional, organism-based; conditions: Human immunodeficiency virus 1, MT2
MT2 = assay: Cytotoxicity in human MT2 cells assessed as reduction in cell viability; type: functional
[3] = tested on: Human immunodeficiency virus 1; assay: Antiviral activity against HIV1 wild type NL (4 to 3) infected in human MT2 cells measured after 4 to 5 days in presence of human serum by dual-luciferase reporter assay; type: functional, organism-based
[4] = AUC in rat at 5 mg/kg, po; type: ADME, organism-based; design: dose 5 mg/kg, route po; conditions: in vivo, read-out: AUC
[5] = tested on: Human immunodeficiency virus 1; assay: Antiviral activity against HIV1 harbouring deltaV370/T371A mutant infected in human MT2 cells measured after 4 to 5 days by dual-luciferase reporter assay; type: functional, organism-based; conditions: Human immunodeficiency virus 1, MT2
[6] = tested on: Human immunodeficiency virus 1; assay: Antiviral activity against HIV1 harbouring V362I/V370A mutant infected in human MT2 cells measured after 4 to 5 days by dual-luciferase reporter assay; type: functional, organism-based; conditions: Human immunodeficiency virus 1, MT2
[7] = Human immunodeficiency virus 1, MT2

SMILES: C=C(C)[C@@H]1CC[C@]2(NCCN3CCS(=O)(=O)CC3)CC[C@]3(C)[C@H](CC[C@@H]4[C@@]5(C)CC=C(C6=CCC(CF)(C(=O)O)CC6)C(C)(C)[C@@H]5CC[C@]43C)[C@@H]12 (some centres not stated)
- EC50 [1]: 0.0013 µM
- EC50 [2]: 0.0039 µM
- CC50 (MT2): 6.8 µM
- EC50 [3, 7]: 0.0095 µM
- AUC [4]: 7.7 µM·h

SMILES: C=C(C)[C@@H]1CC[C@]2(NCCN3CCC(S(C)(=O)=O)CC3)CC[C@]3(C)[C@H](CC[C@@H]4[C@@]5(C)CC=C(C6=CC[C@@](CF)(C(=O)O)CC6)C(C)(C)[C@@H]5CC[C@]43C)[C@@H]12
- EC50 [5]: 0.0058 µM
- EC50 [1]: 0.0019 µM
- EC50 [2]: 0.008 µM
- CC50 (MT2): 13.4 µM
- EC50 [3, 7]: 0.0183 µM
- AUC [4]: 19.1 µM·h

SMILES: C=C(C)[C@@H]1CC[C@]2(NCCN3CCS(=O)(=O)CC3)CC[C@]3(C)[C@H](CC[C@@H]4[C@@]5(C)CC=C(C6=CCC(OC)(C(=O)O)CC6)C(C)(C)[C@@H]5CC[C@]43C)[C@@H]12 (some centres not stated)
- EC50 [1]: 0.0025 µM
- EC50 [2]: 0.0218 µM
- CC50 (MT2): 13.1 µM
- EC50 [3, 7]: 0.025 µM
- AUC [4]: 8.24 µM·h

SMILES: C=C(C)[C@@H]1CC[C@]2(NCCN3CCS(=O)(=O)CC3)CC[C@]3(C)[C@H](CC[C@@H]4[C@@]5(C)CC=C(C6=CCC(C(=O)O)(C(=O)O)CC6)C(C)(C)[C@@H]5CC[C@]43C)[C@@H]12
- EC50 [2]: 0.292 µM
- CC50 (MT2): 18.6 µM

SMILES: C=C(C)[C@@H]1CC[C@]2(NCCN3CCC(S(C)(=O)=O)CC3)CC[C@]3(C)[C@H](CC[C@@H]4[C@@]5(C)CC=C(C6=CCC(CC(F)F)(C(=O)O)CC6)C(C)(C)[C@@H]5CC[C@]43C)[C@@H]12 (some centres not stated)
- EC50 [1]: 0.0014 µM
- EC50 [2]: 0.004 µM
- CC50 (MT2): 7.2 µM
- EC50 [3, 7]: 0.0096 µM
- AUC [4]: 4.29 µM·h

SMILES: C=C(C)[C@@H]1CC[C@]2(NCCN3CCC(S(C)(=O)=O)CC3)CC[C@]3(C)[C@H](CC[C@@H]4[C@@]5(C)CC=C(C6=CC[C@](CF)(C(=O)O)CC6)C(C)(C)[C@@H]5CC[C@]43C)[C@@H]12
- EC50 [5]: 0.0082 µM
- EC50 [1]: 0.0023 µM
- EC50 [2]: 0.0065 µM
- CC50 (MT2): 7.1 µM
- EC50 [3, 7]: 0.0147 µM
- AUC [4]: 24.1 µM·h

SMILES: C=C(C)[C@@H]1CC[C@]2(NCCN3CCC(S(C)(=O)=O)CC3)CC[C@]3(C)[C@H](CC[C@@H]4[C@@]5(C)CC=C(C6=CCC(CF)(C(=O)O)CC6)C(C)(C)[C@@H]5CC[C@]43C)[C@@H]12 (some centres not stated)
- EC50 [1]: 0.0017 µM
- EC50 [2]: 0.0066 µM
- CC50 (MT2): 12.4 µM
- EC50 [3, 7]: 0.0109 µM
- AUC [4]: 14.7 µM·h

SMILES: C=C(C)[C@@H]1CC[C@]2(NCCN3CCS(=O)(=O)CC3)CC[C@]3(C)[C@H](CC[C@@H]4[C@@]5(C)CC=C(C6=CCC(CO)(C(=O)O)CC6)C(C)(C)[C@@H]5CC[C@]43C)[C@@H]12 (some centres not stated)
- EC50 [5]: 0.0046 µM
- EC50 [1]: 0.004 µM
- EC50 [2]: 0.0256 µM
- CC50 (MT2): 14.2 µM
- EC50 [3, 7]: 0.0059 µM
- EC50 [6]: 0.0019 µM

- AUC [4]: 12.9 µM·h
SMILES: C=C(C)[C@@H]1CC[C@]2(NCCN3CCS(=O)(=O)CC3)CC[C@]3(C)[C@H](CC[C@@H]4[C@@]5(C)CC=C(C6=CCC(C(=O)O)CC6)C(C)(C)[C@@H]5CC[C@]43C)[C@@H]12 (some centres not stated)
- CC50 (MT2): 13.9 µM

SMILES: C=C(C)[C@@H]1CC[C@]2(NCCN3CCS(=O)(=O)CC3)CC[C@]3(C)[C@H](CC[C@@H]4[C@@]5(C)CC=C(C6=CCC(CC)(C(=O)O)CC6)C(C)(C)[C@@H]5CC[C@]43C)[C@@H]12 (some centres not stated)
- EC50 [1]: 0.0036 µM
- EC50 [2]: 0.0097 µM
- CC50 (MT2): 27.5 µM
- EC50 [3, 7]: 0.0379 µM

SMILES: C=C(C)[C@@H]1CC[C@]2(NCCN3CCC(S(C)(=O)=O)CC3)CC[C@]3(C)[C@H](CC[C@@H]4[C@@]5(C)CC=C(C6=CCC(CCCOC)(C(=O)O)CC6)C(C)(C)[C@@H]5CC[C@]43C)[C@@H]12 (some centres not stated)
- EC50 [1]: 0.002 µM
- EC50 [2]: 0.0111 µM
- CC50 (MT2): 12.1 µM
- EC50 [3, 7]: 0.0193 µM

SMILES: C=C(C)[C@@H]1CC[C@]2(NCCN3CCS(=O)(=O)CC3)CC[C@]3(C)[C@H](CC[C@@H]4[C@@]5(C)CC=C(C6=CCC(CF)(C(=O)O)CC6)C(C)(C)[C@@H]5CC[C@]43C)[C@@H]12 (single isomer, unassigned) [FIPRAVIRIMAT]
- EC50 [5]: 0.0018 µM
- EC50 [1]: 0.002 µM
- EC50 [2]: 0.0094 µM
- CC50 (MT2): 13.3 µM
- EC50 ([3]; mt2): 0.0066 µM
- AUC [4]: 6.98 µM·h

SMILES: C=C(C)[C@@H]1CC[C@]2(NCCN3CCC(S(C)(=O)=O)CC3)CC[C@]3(C)[C@H](CC[C@@H]4[C@@]5(C)CC=C(C6=CC[C@@H](C(=O)O)CC6)C(C)(C)[C@@H]5CC[C@]43C)[C@@H]12
- EC50 [2]: 0.0188 µM
- CC50 (MT2): 9.1 µM
- EC50 [3, 7]: 0.0049 µM
- AUC [4]: 9.18 µM·h

SMILES: C=C(C)[C@@H]1CC[C@]2(NCCN3CCS(=O)(=O)CC3)CC[C@]3(C)[C@H](CC[C@@H]4[C@@]5(C)CC=C(C6=CC7(C6)CC(C(=O)O)(C(=O)O)C7)C(C)(C)[C@@H]5CC[C@]43C)[C@@H]12
- EC50 [1]: 0.0013 µM
- CC50 (MT2): > 30 µM

SMILES: C=C(C)[C@@H]1CC[C@]2(NCCN3CCS(=O)(=O)CC3)CC[C@]3(C)[C@H](CC[C@@H]4[C@@]5(C)CC=C(C6=CCC(CC7CC7)(C(=O)O)CC6)C(C)(C)[C@@H]5CC[C@]43C)[C@@H]12 (some centres not stated)
- EC50 [1]: 0.0045 µM
- EC50 [2]: 0.0541 µM
- CC50 (MT2): 16.2 µM
- EC50 [3, 7]: 0.0485 µM

SMILES: C=C(C)[C@@H]1CC[C@]2(NCCN3CCS(=O)(=O)CC3)CC[C@]3(C)[C@H](CC[C@@H]4[C@@]5(C)CC=C(C6=CCC(C(=O)O)(c7ccccc7)CC6)C(C)(C)[C@@H]5CC[C@]43C)[C@@H]12 (some centres not stated)
- EC50 [1]: 0.0077 µM
- EC50 [2]: 0.0312 µM
- CC50 (MT2): 13.5 µM
- EC50 [3, 7]: 0.0151 µM

SMILES: C=C(C)[C@@H]1CC[C@]2(NCCN3CCS(=O)(=O)CC3)CC[C@]3(C)[C@H](CC[C@@H]4[C@@]5(C)CC=C(C6=CCC(COCC)(C(=O)O)CC6)C(C)(C)[C@@H]5CC[C@]43C)[C@@H]12 (some centres not stated)
- EC50 [1]: 0.0032 µM
- EC50 [2]: 0.0115 µM
- CC50 (MT2): 5.1 µM
- EC50 [3, 7]: 0.0218 µM

SMILES: C=C(C)[C@@H]1CC[C@]2(NCCN3CCS(=O)(=O)CC3)CC[C@]3(C)[C@H](CC[C@@H]4[C@@]5(C)CC=C(C6=CCC(OC(C)C)(C(=O)O)CC6)C(C)(C)[C@@H]5CC[C@]43C)[C@@H]12 (some centres not stated)
- EC50 [1]: 0.005 µM
- EC50 [2]: 0.987 µM
- CC50 (MT2): 9.7 µM
- EC50 [3, 7]: 0.0485 µM

SMILES: C=C(C)[C@@H]1CC[C@]2(NCCN3CCS(=O)(=O)CC3)CC[C@]3(C)[C@H](CC[C@@H]4[C@@]5(C)CC=C(C6=CCC(C)(C(=O)O)CC6)C(C)(C)[C@@H]5CC[C@]43C)[C@@H]12 (some centres not stated)
- EC50 [5]: 0.0098 µM
- EC50 [1]: 0.0015 µM
- EC50 [2]: 0.0048 µM
- CC50 (MT2): 13.1 µM
- EC50 [3, 7]: 0.012 µM
- AUC [4]: 5.86 µM·h

SMILES: C=C(C)[C@@H]1CC[C@]2(NCCN3CCS(=O)(=O)CC3)CC[C@]3(C)[C@H](CC[C@@H]4[C@@]5(C)CC=C(C6=CCC(COC)(C(=O)O)CC6)C(C)(C)[C@@H]5CC[C@]43C)[C@@H]12 (some centres not stated)
- EC50 [1]: 0.0015 µM
- EC50 [2]: 0.0139 µM
- CC50 (MT2): 4.7 µM
- EC50 [3, 7]: 0.0067 µM

SMILES: C=C(C)[C@@H]1CC[C@]2(NCCN3CCS(=O)(=O)CC3)CC[C@]3(C)[C@H](CC[C@@H]4[C@@]5(C)CC=C(C6=CCC(CC(=O)O)(C(=O)O)CC6)C(C)(C)[C@@H]5CC[C@]43C)[C@@H]12 (some centres not stated)
- EC50 [1]: 0.0035 µM
- EC50 [2]: 0.0141 µM
- CC50 (MT2): 6.4 µM
- EC50 [3, 7]: 0.135 µM
